pIC50: −log10 of the molar value.
Molecular target: T1, human TrkA (Homo sapiens, UniProt P04629)
T1 construct: purchased Lifetechnologies PV3144
Assay: Test Example 2-2: Human TrkA Inhibition Assay
Assay type: biochemical
Conditions: class symbols, read-out: IC50_nM
Experimental: Seven point five μL per well of human TrkA (PV3144, Lifetechnologies, final concentration: 1 nmol/L) suspended in the assay buffer (100 mmol/L 4-(2-hydroxyethyl)-1-piperazineethanesulfonic acid (HEPES), 10 mmol/L magnesium chloride, 0.003 vol % Brij-35, 0.004 vol % Tween20 and 1 mmol/L dithiothreitol (DTT)) was applied in a 384 well plate and the plate was pre-incubated for 15 min at room temperature with 0.4 μL of each compound (final concentration: […]) dissolved in DMSO. Then, fluorescent substrate (FL-peptide 27, 760424, PerkinElmer, final concentration: 1.5 μmol/L) and ATP (final concentration […]) dissolved in the assay buffer was added in each well. After the incubation of 120 min at 37° C., fifteen μL of termination buffer (100 mmol/L HEPES, 40 mmol/L ethylenediaminetetraacetic acid (EDTA), 10 mmol/L magnesium chloride, 0.003 vol % Brij-35, 0.004 vol % Tween20, 1 mmol/L DTT and 0.16 vol % Coating Reagent 3) was added in each well to stop the enzyme reaction. Fluorescent intensities (FI) of phosphorylated and non-phosphorylated fluorescent substrates were measured by LabChip EZReader II (Caliper LifeSciences, Inc.), and conversion ratio (CR) was calculated by the following formula-1. The CR in the well applied with DMSO alone was used as a negative control and the CR in the well without applying TrkA was used as a positive control. The inhibitory effect of each compound on TrkA phosphorylation was calculated by the following formula-2. CR (%)=(FI of phosphorylated substrate/(FI of phosphorylated substrate+FI of non-phosphorylated substrate))×100 (Formula-1) Phosphorylation inhibition (%)=(1−(CR with compound treatment−CR of positive control)/(CR of negative control−CR of positive control))×100 (Formula-2) Inhibitory effect on TrkA phosphorylation (%)=(1−(CR in compound treated well−CR in positive control)/(CR in negative control−CR in positive control))×100.
The 50/o inhibitory concentration (IC50) was determined by the logistic regression using the inhibition data in 10 points at a range of 2 μmol/L to 0.1 nmol/L or 200 μmol/L to 10 nmol/L).

T1 sequence (P04629 33-796): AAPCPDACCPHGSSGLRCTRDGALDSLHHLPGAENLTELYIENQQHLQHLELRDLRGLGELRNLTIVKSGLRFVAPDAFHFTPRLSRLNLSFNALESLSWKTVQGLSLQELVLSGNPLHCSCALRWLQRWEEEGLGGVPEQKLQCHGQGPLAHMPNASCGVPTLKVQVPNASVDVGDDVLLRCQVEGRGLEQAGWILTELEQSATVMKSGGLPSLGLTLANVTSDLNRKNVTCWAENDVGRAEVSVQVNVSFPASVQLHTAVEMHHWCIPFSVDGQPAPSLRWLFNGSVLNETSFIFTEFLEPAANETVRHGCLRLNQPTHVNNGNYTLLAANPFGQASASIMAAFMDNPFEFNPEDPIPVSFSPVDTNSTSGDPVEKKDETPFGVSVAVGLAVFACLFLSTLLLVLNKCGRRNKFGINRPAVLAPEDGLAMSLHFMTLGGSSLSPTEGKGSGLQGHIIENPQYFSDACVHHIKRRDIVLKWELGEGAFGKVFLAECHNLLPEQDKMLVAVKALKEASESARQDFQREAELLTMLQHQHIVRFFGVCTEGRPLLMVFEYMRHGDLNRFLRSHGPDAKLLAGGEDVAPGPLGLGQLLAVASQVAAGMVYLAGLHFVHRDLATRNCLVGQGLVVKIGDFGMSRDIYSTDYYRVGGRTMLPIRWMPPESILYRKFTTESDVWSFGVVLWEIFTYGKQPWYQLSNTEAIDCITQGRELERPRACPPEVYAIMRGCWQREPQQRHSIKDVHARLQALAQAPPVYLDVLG

| pIC50 | Structure (SMILES) |
| --- | --- |
| > 7.00 | COCC[C@@H]1C[C@@H](NC(=O)Nc2c(C)c(-c3cnn(C)c3)nn2-c2ccccc2)[C@H](c2ccc(F)cc2)N1C [Compound I-275] |
| 6.00 to 7.00 | COCC(O)C1C[C@@H](NC(=O)Nc2c(C)c(-c3cnn(C)c3)nn2-c2ccccc2)[C@H](c2ccccc2)C1 (some centres unmarked) [Compound I-271] |

Same assay, conditions: human TrkA 1 nmol/L, 120 min at 37° C., read-out: TrkA inhibition IC50

| Structure (SMILES) | pIC50 |
| --- | --- |
| COCC[C@@H]1C[C@@H](NC(=O)Nc2c(C)c(C3=CCN(C(C)=O)CC3)nn2-c2ccccc2)[C@H](c2ccccc2)C1 [Compound I-270] | 9.17 |
| COCCN1C[C@@H](NC(=O)Nc2c(C)c(-c3cnn(C)c3)nn2-c2ccccc2)[C@H](C2=CCCCC2)C1 (racemic) [Compound I-218] | 6.57 |
| COCC[C@@H]1C[C@@H](NC(=O)Nc2c(C)c(-c3cnc(CO)nc3)nn2-c2ccccc2)[C@H](c2ccccc2)C1 [Compound I-269] | 8.89 |
| Cc1c(-c2cnn(C)c2)nn(-c2ccccc2)c1NC(=O)N[C@@H]1CN(CCOC2CC2)C[C@H]1c1ccnc(F)c1 (racemic) [Compound I-267] | 7.62 |
| Cc1c(-c2cnn(C)c2)nn(-c2ccccc2)c1NC(=O)N[C@@H]1C[C@@H](Oc2ccncc2)C[C@H]1c1ccccc1 (racemic) [Compound I-225] | 6.92 |

The remaining lines, values ahead:

| pIC50 | Structure (SMILES) |
| --- | --- |
| 8.09 | COCC[C@@H]1C[C@@H](NC(=O)Nc2c(C)c(-c3cnc(C)nc3)nn2-c2ccccc2)[C@H](c2ccc(F)c(F)c2)N1 [Compound I-256] |
| 9.14 | COCC[C@@H]1C[C@@H](NC(=O)Nc2c(C)c(-c3cnc(C)nc3)nn2-c2ccccc2)[C@H](c2ccc(F)c(F)c2)C1 [Compound I-254] |
| 8.44 | Cc1c(-c2cnn(C)c2)nn(-c2ccccc2)c1NC(=O)N[C@@H]1CN(CCOC2CC2)C[C@H]1c1ccc(F)c(F)c1 [Compound I-252] |

Same assay, conditions: human TrkA inhibition, class symbols A/B/C, read-out: IC50_nM

| Structure (SMILES) | pIC50 |
| --- | --- |
| COCCC1C[C@@H](NC(=O)Nc2cc(-c3cnc(C)nc3)nn2C)[C@H](c2ccccc2)C1 (some centres unmarked) [Compound I-219] | < 6.00 |
| COCC[C@@H]1C[C@@H](NC(=O)Nc2c(C)c(C3=CCNCC3)nn2-c2ccccc2)[C@H](c2ccccc2)C1 [Compound I-266] | > 7.00 |
| Cc1c(-c2cnn(C)c2)nn(-c2ccccc2)c1NC(=O)N[C@@H]1CN(Cc2csc(Br)n2)C[C@H]1c1ccc(F)c(F)c1 [Compound I-205] | > 7.00 |
| COCCN1C[C@@H](NC(=O)Nc2c(C)c(-c3cnn(C)c3)nn2-c2ccccc2)[C@H](c2ccc3occc3c2)C1 (racemic) [Compound I-232] | 6.00 to 7.00 |
| COCC(C(=O)OC)[C@@H]1C[C@@H](NC(=O)Nc2c(C)c(-c3cnn(C)c3)nn2-c2ccccc2)[C@H](c2ccccc2)C1 (mixture of isomers) [Compound I-243] | < 6.00 |
| COCCC1C[C@@H](NC(=O)Nc2cc(-c3ccc(C)nc3)nn2C)[C@H](c2ccccc2)C1 (some centres unmarked) [Compound I-220] | 6.00 to 7.00 |
| COCCC1C[C@@H](NC(=O)Nc2cc(-c3ccc(C(=O)O)cc3)nn2C)[C@H](c2ccccc2)C1 (some centres unmarked) [Compound I-199] | < 6.00 |
| COCCC1C[C@@H](NC(=O)Nc2cc(-c3ccccc3)nn2C)[C@H](c2ccccc2)N1 (some centres unmarked) [Compound I-216] | 6.00 to 7.00 |
| COCCC1C[C@@H](NC(=O)Nc2cc(C(F)(F)F)cnc2-c2ccccc2)[C@H](c2ccccc2)C1 (relative stereo) [Compound I-201] | > 7.00 |
| CCOC(=O)C(COC)[C@@H]1C[C@@H](NC(=O)Nc2c(C)c(-c3cnn(C)c3)nn2-c2ccccc2)[C@H](c2ccccc2)C1 (mixture of isomers) [Compound I-238] | < 6.00 |
| COCCN1C[C@@H](NC(=O)Nc2c(C)c(-c3cnn(C)c3)nn2-c2ccccc2)[C@H](c2cccc(C=O)c2)C1 (racemic) [Compound I-230] | 6.00 to 7.00 |
| CCO[C@@H]1C[C@@H](NC(=O)Nc2c(C)c(-c3cnn(C)c3)nn2-c2ccccc2)[C@H](c2ccccc2)C1 (racemic) [Compound I-211] | < 6.00 |
| COCC=C1C[C@@H](NC(=O)Nc2c(C)c(-c3cnn(C)c3)nn2-c2ccccc2)[C@H](c2ccccc2)C1 [Compound I-261] | > 7.00 |
| COCCN1C[C@@H](NC(=O)Nc2c(C)c(-c3cnn(C)c3)nn2-c2ccccc2)[C@H](c2ccnc(C3=NC(=O)CS3)c2)C1 (racemic) [Compound I-195] | < 6.00 |
| CCOc1nn(-c2ccccc2)c(NC(=O)N[C@@H]2C[C@@H](CCOC)[C@H](CO)[C@H]2c2ccccc2)c1C [Compound I-227] | 6.00 to 7.00 |
| COCCN1C[C@@H](NC(=O)Nc2c(C)c(-c3cnn(C)c3)nn2-c2ccccc2)[C@H](c2ccccc2)[C@H]1CF [Compound I-251] | 6.00 to 7.00 |

Results, then the molecule that gave them:

| pIC50 | Structure (SMILES) |
| --- | --- |
| > 7.00 | CCNC(=O)c1ccc(-c2nn(-c3ccccc3)c(NC(=O)N[C@@H]3C[C@@H](CCOC)C[C@H]3c3ccccc3)c2C)cc1 [Compound I-264] |
| < 6.00 | COCCC1C[C@@H](NC(=O)Nc2c(C)c(-c3cnn(C)c3)nn2-c2ccccc2)[C@H](c2ccc(F)c(F)c2)N1Cc1ccccc1 (some centres unmarked) [Compound I-196] |
| > 7.00 | COCC[C@@H]1C[C@@H](NC(=O)Nc2c(C)c(C3=CCNCC3)nn2-c2ccccc2)[C@H](c2ccc(F)c(F)c2)N1 [Compound I-247] |
| > 7.00 | COCC[C@@H]1C[C@@H](NC(=O)Nc2c(C)c(-c3cnn(C)c3)nn2-c2ccccc2)[C@H](c2ccccc2)[C@H]1C(F)F [Compound I-253] |
| < 6.00 | COCCC1C[C@@H](NC(=O)Nc2c(C)c(-c3cnn(C)c3)nn2-c2ccccc2)[C@H](c2ccc(F)c(F)c2)N1CCOC (some centres unmarked) [Compound I-197] |
| > 7.00 | COCC[C@@H]1C[C@@H](NC(=O)Nc2c(C)c(C3=CCN(C(=O)OC(C)(C)C)CC3)nn2-c2ccccc2)[C@H](c2ccc(F)c(F)c2)N1C [Compound I-259] |
| > 7.00 | COCC[C@@H]1C[C@@H](NC(=O)Nc2c(C)c(-c3ccc(C(=O)OC(C)(C)C)cc3)nn2-c2ccccc2)[C@H](c2ccc(F)c(F)c2)N1C [Compound I-236] |
| > 7.00 | COCCN1C[C@@H](NC(=O)Nc2c(C)c(-c3cnn(C)c3)nn2-c2ccccc2)[C@H](c2ccc(F)c(F)c2)C1 [Compound I-250] |
| > 7.00 | COCCC1C[C@@H](NC(=O)Nc2c(C)c(-c3ccnc(C)c3)nn2-c2ccccc2)[C@H](c2ccccc2)C1 (some centres unmarked) [Compound I-234] |
| > 7.00 | COCC[C@@H]1C[C@@H](NC(=O)Nc2c(C)c(-c3ccc(OC)nc3)nn2-c2ccccc2)[C@H](c2ccc(F)c(F)c2)N1 [Compound I-257] |
| > 7.00 | COCC[C@@H]1C[C@@H](NC(=O)Nc2c(C)c(-c3cnn(C)c3)nn2-c2ccccc2)[C@H](c2ccc(F)c(F)c2)N1 [Compound I-208] |
| > 7.00 | COCC(O)[C@H]1C[C@@H](NC(=O)Nc2c(C)c(-c3cnn(C)c3)nn2-c2ccccc2)[C@H](c2ccc(F)c(F)c2)N1C (some centres unmarked) [Compound I-229] |
| > 7.00 | COCCC1C[C@@H](NC(=O)Nc2c(C)c(-c3ccc(C(=O)O)cc3)nn2-c2ccccc2)[C@H](c2ccccc2)C1 (some centres unmarked) [Compound I-207] |
| 6.00 to 7.00 | C=C[C@@H]1C[C@@H](NC(=O)Nc2c(C)c(-c3cnn(C)c3)nn2-c2ccccc2)[C@H](c2ccc(F)c(F)c2)N1 [Compound I-224] |
| > 7.00 | Cc1c(-c2cnn(C)c2)nn(-c2ccccc2)c1NC(=O)N[C@@H]1CN(CCOC(C)C)C[C@H]1c1ccc(F)c(F)c1 [Compound I-217] |
| < 6.00 | Cc1c(-c2cnn(C)c2)nn(-c2ccccc2)c1NC(=O)N[C@@H]1CN(Cc2ccc(C(=O)O)o2)C[C@H]1c1ccc(F)c(F)c1 [Compound I-188] |
| > 7.00 | COCC[C@@H]1C[C@@H](NC(=O)Nc2c(C)c(-c3ccnc(C)c3)nn2-c2ccccc2)[C@H](c2ccc(F)c(F)c2)N1C [Compound I-235] |
| > 7.00 | COCC[C@@H]1C[C@@H](NC(=O)Nc2c(C)c(C3=CCNCC3)nn2-c2ccccc2)[C@H](c2ccc(F)c(F)c2)N1C [Compound I-258] |
| 6.00 to 7.00 | COCC[C@@H]1C[C@@H](NC(=O)Nc2c(C)c(-c3cnn(C)c3)nn2-c2ccccc2)[C@H](c2ccccc2)N1 [Compound I-242] |
| 6.00 to 7.00 | Cc1c(-c2cnn(C)c2)nn(-c2ccccc2)c1NC(=O)N[C@@H]1CC(C)C[C@H]1c1ccc(F)c(F)c1 (some centres unmarked) [Compound I-163] |
| > 7.00 | COCC[C@@H]1C[C@@H](NC(=O)Nc2c(C)c(C3=CCN(C(=O)OC(C)(C)C)CC3)nn2-c2ccccc2)[C@H](c2ccccc2)C1 [Compound I-265] |
| 6.00 to 7.00 | COCCC1C[C@H](NC(=O)Nc2c(C)c(-c3cnn(C)c3)nn2-c2ccccc2)[C@@H](c2ccccc2)C1 (some centres unmarked) [Compound I-213] |
| 6.00 to 7.00 | COC(=O)C(c1ccco1)N1C[C@@H](NC(=O)Nc2c(C)c(-c3cnn(C)c3)nn2-c2ccccc2)[C@H](c2ccc(F)c(F)c2)C1 (some centres unmarked) [Compound I-177] |
| > 7.00 | Cc1c(-c2cnn(C)c2)nn(-c2ccccc2)c1NC(=O)N[C@@H]1CN(Cc2csc(Cl)n2)C[C@H]1c1ccc(F)c(F)c1 [Compound I-204] |

Source: patent publication US10532985B2, “Heterocycle and carbocycle derivatives having TRKA inhibitory activity” (Shionogi & Co., Ltd., priority 2014, dated 2020)
